In PubChem BioAssay AID652222 (The Scripps Research Institute Molecular Screening Center, 2013):

target: Serine/threonine-protein phosphatase PP1-alpha catalytic subunit (Homo sapiens) (UniProt P62136); assay: dose-dependent PP1alpha phosphatase inhibition – biochemical, fluorescence, OMFP substrate, set 1, dose response (AID 652222); details: purified PP1alpha, OMFP dephosphorylation
Sequence (P62136 whole entry, looked up): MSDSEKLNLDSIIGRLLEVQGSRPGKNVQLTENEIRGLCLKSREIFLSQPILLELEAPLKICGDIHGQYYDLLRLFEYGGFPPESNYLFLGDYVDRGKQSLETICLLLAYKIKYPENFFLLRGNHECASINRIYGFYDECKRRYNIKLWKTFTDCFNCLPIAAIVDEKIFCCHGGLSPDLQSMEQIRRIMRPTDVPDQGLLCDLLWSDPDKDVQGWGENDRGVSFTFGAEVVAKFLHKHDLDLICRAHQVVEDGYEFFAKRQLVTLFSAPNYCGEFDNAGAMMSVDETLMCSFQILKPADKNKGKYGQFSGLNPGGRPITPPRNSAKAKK

IC50, active:
Cc1ccc2ccc(C(c3ccccn3)N3CCN(C)CC3)c(O)c2n1 (stereo not drawn) 1440 nM
CN1CCN(C(c2ccc3cccnc3c2O)c2ncccc2C(F)(F)F)CC1 (stereo not drawn) 1120 nM
COc1ccc(C(c2ccc3cccnc3c2O)N2CCN(C)CC2)nc1 (stereo not drawn) 1690 nM
Cc1ccc(C(c2ccc3cccnc3c2O)N2CCN(C)CC2)nc1 (stereo not drawn) 1340 nM
CN1CCN(C(c2ccc(C(F)(F)F)cn2)c2ccc3cccnc3c2O)CC1 (stereo not drawn) 836 nM
Cc1cccnc1C(c1ccc2cccnc2c1O)N1CCN(C)CC1 (stereo not drawn) 1480 nM
Oc1c(C(c2ccccn2)N2CCC(Cc3ccccc3)CC2)cc(Cl)c2cccnc12 (stereo not drawn) 1230 nM
CN1CCC(NC(c2ccccn2)c2ccc3cccnc3c2O)CC1 (stereo not drawn) 2500 nM
Oc1c(C(c2ccccn2)N2CCCC2)ccc2cccnc12 (stereo not drawn) 1410 nM
Cc1cccc(C(c2ccc3cccnc3c2O)N2CCN(C)CC2)n1 (stereo not drawn) 2520 nM
CC(C)(C)OC(=O)N1CCN(C(c2ccccn2)c2cc(Cl)c3cccnc3c2O)CC1 (stereo not drawn) 1370 nM
COc1cccc(C(c2ccc3cccnc3c2O)N2CCN(C)CC2)n1 (stereo not drawn) 8870 nM
COc1ccnc(C(c2ccc3cccnc3c2O)N2CCN(C)CC2)c1 (stereo not drawn) 1260 nM
CN1CCN(C(c2ncccn2)c2ccc3cccnc3c2O)CC1 (stereo not drawn) 2690 nM
CC1CCN(C(c2ccccn2)c2cc(Cl)c3cccnc3c2O)CC1 (stereo not drawn) 1450 nM
Oc1c(C(NC2CCCCC2)c2ccccn2)ccc2cccnc12 (stereo not drawn) 1360 nM
Oc1c(C(c2ccccn2)N2CCN(c3ccccc3F)CC2)cc(Cl)c2cccnc12 (stereo not drawn) 2410 nM
Cc1ccnc(C(c2ccc3cccnc3c2O)N2CCN(C)CC2)c1 (stereo not drawn) 1800 nM
